Test results taken from publication PMC3810934 (Emerging Infectious Diseases, 2013).
Where two headings read alike, the source gives them in different places.

Key:
[1] = biological target: T1, Oseltamivir-resistant A/Texas/23/2012 neuraminidase (H275Y) (Influenza A virus (H1N1pdm09), UniProt R4SI91, H275Y); type: biochemical, Pandemic influenza A(H1N1) 2009 virus; details: pH 5.1
[2] = biological target: T1, Oseltamivir-resistant A/Texas/23/2012 neuraminidase (H275Y); type: biochemical, Pandemic influenza A(H1N1) 2009 virus; details: pH 6.5
[3] = biological target: T2, Oseltamivir-resistant A/Bethesda/956/2006 neuraminidase (K at 292) (Influenza A virus (H3N2), UniProt F1KL32, R292K); type: biochemical; details: pH 5.1
[4] = biological target: T2, Oseltamivir-resistant A/Bethesda/956/2006 neuraminidase (K at 292); type: biochemical; details: pH 6.5

CCC(CC)[C@H](NC(C)=O)[C@@H]1[C@H](O)[C@@H](C(=O)O)C[C@H]1N=C(N)N [Peramivir, peramivir]
Fold change in IC50 compared with drug-sensitive subtype-specific control [1]: 30.17 (431) fold
IC50 [1]: 30.2 nM
Fold change in IC50 compared with drug-sensitive subtype-specific control [2]: 15.81 (264) -fold
IC50 [2]: 15.8 nM
Fold change in IC50 compared with drug-sensitive subtype-specific control [3]: 8.58 (86) fold
IC50 [3]: 8.58 nM
Fold change in IC50 compared with drug-sensitive subtype-specific control [4]: 16.27 (203) -fold
IC50 [4]: 16.3 nM
